Laboratory results as given in publication PMC3788796, “The Antimicrobial Domains of Wheat Puroindolines Are Cell-Penetrating Peptides with Possible Intracellular Mechanisms of Action” (PLoS ONE, 2013).

Key:
[1] = tested on: Saccharomyces cerevisiae (ATCC 287); test: MIC of the peptides against yeast cells; assay type: cell-based; conditions: PDB, 96-well two-fold dilution 250 to 2 µg/mL, 0.5–2×10^3 cells/mL, overnight 30°C, growth observed visually
Procedure: Saccharomyces cerevisiae (ATCC 287) was grown in Potato Dextrose Broth (PDB) overnight at 30°C with shaking at 220 rpm. The cultures were vortexed vigorously and the cell suspension adjusted to 1–5×10^6 cells/mL with PDB (McFarland standard 0.5) and then diluted 1∶200 with PDB to a final concentration of 0.5–2×10^3 cells/mL [37]. The MIC assays were carried out in 96-well plates as described previously. Peptides (PuroA, Pina-M, Pina-W→F and PuroB) in 25 µL volumes were added to the first empty well and a two-fold dilution was carried out across each row with a starting peptide concentration of 250 µg/mL and a final one of 2 µg/mL. Test wells were subsequently inoculated with 75 µL yeast cells (0.5–2×10^3 cells/mL) and incubated overnight at 30°C. Negative control (no peptide) and positive control (fungicide Mycobutanil) wells were also prepared. The MIC was defined as the lowest concentration of the peptide required to inhibit fungal growth, observed visually.

S. cerevisiae cells = test: SEM of peptide-treated yeast cells; assay type: cell-based, Saccharomyces cerevisiae; conditions: sub-MIC: PuroA and Pina-M 64 µg/mL, Pina-W→F 125 µg/mL; 1 h 30°C
Procedure: S. cerevisiae cultures were grown overnight in 5.0 mL of PDB 30°C, to OD600 = 1.2–1.8 (∼5×10^7 cells/mL). 75 µL aliquots of the yeast cell suspension were incubated with 25 µL of PuroA, Pina-M, Pina-W→F or PuroB (at final concentrations of 0.5×, 1× or 2× of the respective MIC for S. cerevisiae; see results) for 1 h at 30°C. The cells were collected by centrifugation (1000×g, 5 min), the pellets washed three times in PBS (pH 7.4) and resuspended in 100 µL MilliQ (ultra-pure) water. A 25 µL aliquot of the cell suspension was spotted onto a glass slide, air-dried, then fixed and dehydrated as described previously. In brief, the air-dried slides were fixed in 2.5% glutaraldehyde (in PBS, pH 7.4) overnight in a humid chamber, then washed with PBS pH 7.4 for 10 min, and dehydrated in an ethanol gradient of 50%, 60%, 70%, 80%, 90% and 100%. The slides were freeze-dried overnight and then coated in a Dynavac CS300 coating unit with carbon and gold, with double sided conducting carbon tape attached to the slides for better conductivity. The samples were analysed using a ZEISS supra 10 VP field emission scanning electron microscope (Carl Zeiss Microscopy, NY, USA) at 3.0 kV.

[2] = Calcein dye leakage from mammalian-mimicking LUVs; assay type: biochemical; conditions: for % Calcein leakage from DOPC LUVs: LUVs 10 µM phospholipid, 10 mM Tris, 100 mM NaCl pH 7.4, 5 min, fluorescence 496/515 nm, no-peptide control 28.0, average of duplicate experiments
Procedure: A calcein leakage assay as previously described was performed to determine the effects of PIN-based peptides on the permeability of synthetic large unilamellar vesicles (LUVs), designed to mimic bacterial and mammalian cell membranes. The phospholipids used were DOPC (1,2-dioleoyl-sn-glycero-3-phosphocholine), with zwitterionic head groups and DOPG (1,2-dioleoyl-sn-glycerol-3-[phosphor-rac-(1-glycerol)]), with negatively charged headgroups (Avanti® Polar lipids, Alabaster, USA). These were used to make DOPC:DOPG (1∶3) LUVs to mimic bacterial cell membranes, or DOPC only, to mimic mammalian cell membranes. Calcein-entrapped LUVs were prepared by the extrusion method using an Avanti mini extrusion apparatus (Avanti® Polar Lipids, Alabaster, USA). The DOPC:DOPG (a 1∶3 mixture) or DOPC were dissolved in chloroform (25 mg/mL) and aliquoted into glass test tubes to give a concentration of 2.6 mM when resuspended in 2 mL buffer. Chloroform was evaporated under a stream of N2 and the lipid films were dried overnight under vacuum. The films were then resuspended in 2.0 mL of 70 mM calcein buffer (in 10 mM Tris-HCl, pH 7.4) and incubated at room temperature for 30 minutes. To increase entrapment of the dye, five repeated freeze\thaw cycles were used by placing the vial in liquid N2 and then a warm water bath (37°C). The lipid mixture was then extruded through the mini-extruder 10 times through two stacked 0.1 µm pore-size filters. Free calcein was removed by centrifugation (10, 000×g, 10 min) three times and washing with 10 mM Tris, 100 mM NaCl buffer (pH 7.4). Standards of phosphorus (inorganic P; Pi) were prepared (0.05–1.5 mg/mL) using KH2PO4 and read at 820 nm and a linear standard curve was generated (Figure S1 in File S1). The phospholipid concentration of the vesicle preparations was determined by a total phosphorus assay. The assay reagent was prepared fresh by mixing 1 part of 1% ascorbic acid with 6 parts of 0.42% ammonium molybdate•4H2O in H2SO4 and stored on ice. 7 µL of it was added to 3 µL of vesicle suspensions and incubated for 20 min at 45°C. […] The standard curve of phosphorus standards (Figure S1 in File S1) was used to determine the Pi concentration in a LUV preparation, and this was converted to phospholipid concentration (Table S1 in File S1) to adjust the preparations to the required 10 µM phospholipid concentration prior to peptide treatment.
The calcein-filled LUVs were diluted with 10 mM Tris, 100 mM NaCl buffer (pH 7.4) to a final phospholipid concentration of 10 µM. The experiments were performed in a Varian Cary Eclipse fluorescence spectrophotometer with excitation and emission wavelengths of 496 nm and 515 nm, slit widths of […] and a PMT detector of 600 V. The peptides (PuroA, Pina-M, Pina-W→F and PuroB) were added to LUVs to a final peptide concentration of 8–125 µg/mL in 100 µL volumes and the fluorescence (F) monitored for 5 min at 60 s intervals. The total calcein fluorescence (FT) was determined by addition of 1.0% Triton X100. The dye leakage was calculated as % Leakage = ((F – F0)/(FT – F0)), F0 being fluorescence of each sample at T = 0.

FPVTFRFFKFFKG-NH2 [Pina-W→F, PuroA-based peptide with all Trps substituted with Phe residues]
MIC against S. cerevisiae [1]: 250 µg/mL | surface morphology of yeast cells (SEM) at sub-MIC level (S. cerevisiae cells): shallow pits or pores on the surface | dye leakage from the DOPC LUVs (in words) ([2]; over all tested concentrations, even at high concentration): no significant leakage | % Calcein leakage from DOPC LUVs ([2]; peptide 8 µg/mL): 28.0% | % Calcein leakage from DOPC LUVs ([2]; peptide 16 µg/mL): 27.0% | % Calcein leakage from DOPC LUVs ([2]; peptide 32 µg/mL): 27.0% | % Calcein leakage from DOPC LUVs ([2]; peptide 64 µg/mL): 31.0% | % Calcein leakage from DOPC LUVs ([2]; peptide 125 µg/mL (highest for PuroA, Pina-M, Pina-W→F)): 36.0%
